{
  "source": "paper PMC7316778",
  "about": "(Nature Communications, 2020)",
  "key": {"[1]": {"biological_target": "CSNK1E (CK1 epsilon) (Homo sapiens, UniProt P49674)", "sequence (P49674 whole entry)": "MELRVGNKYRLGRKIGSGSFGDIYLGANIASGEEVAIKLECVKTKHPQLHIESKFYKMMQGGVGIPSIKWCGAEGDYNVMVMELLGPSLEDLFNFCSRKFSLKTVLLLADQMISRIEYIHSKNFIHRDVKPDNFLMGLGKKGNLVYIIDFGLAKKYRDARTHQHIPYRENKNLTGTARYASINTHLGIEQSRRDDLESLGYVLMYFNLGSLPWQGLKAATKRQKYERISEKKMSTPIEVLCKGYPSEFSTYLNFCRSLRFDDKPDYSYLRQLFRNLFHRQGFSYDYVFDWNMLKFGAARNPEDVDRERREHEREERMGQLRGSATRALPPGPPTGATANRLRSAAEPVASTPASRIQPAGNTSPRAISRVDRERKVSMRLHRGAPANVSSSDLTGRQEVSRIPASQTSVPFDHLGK", "test": "SelectScreen kinase assay", "conditions": "for Inhibition at 1 µM (%): CSNK1E (CK1 epsilon), ZLYTE, ATP Km app"}, "[2]": {"biological_target": "MAPK8 (JNK1) (Homo sapiens, UniProt P45983)", "sequence (P45983 whole entry)": "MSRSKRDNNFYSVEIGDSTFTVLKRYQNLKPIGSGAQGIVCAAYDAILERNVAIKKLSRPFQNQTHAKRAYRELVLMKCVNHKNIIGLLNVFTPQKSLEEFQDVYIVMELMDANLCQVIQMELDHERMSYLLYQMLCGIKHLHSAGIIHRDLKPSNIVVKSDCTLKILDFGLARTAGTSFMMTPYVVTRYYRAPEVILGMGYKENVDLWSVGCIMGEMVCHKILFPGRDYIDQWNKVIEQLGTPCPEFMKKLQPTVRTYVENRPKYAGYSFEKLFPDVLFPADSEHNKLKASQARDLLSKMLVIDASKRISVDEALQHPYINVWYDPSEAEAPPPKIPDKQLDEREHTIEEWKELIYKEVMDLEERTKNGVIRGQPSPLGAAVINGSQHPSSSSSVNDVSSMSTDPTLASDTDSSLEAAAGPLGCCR", "test": "SelectScreen kinase assay"}, "[3]": {"biological_target": "endogenous FES^S700C (Homo sapiens, UniProt P07332, S700C)", "test": "Gel-based target engagement in HL-60 neutrophils"}, "[4]": {"biological_target": "PRKG2 (PKG2) (Homo sapiens, UniProt Q13237)", "test": "SelectScreen kinase assay"}, "[5]": {"biological_target": "PIK3C2A (PI3K-C2 alpha) (Homo sapiens, UniProt O00443)", "test": "SelectScreen kinase assay", "conditions": "1 h, 1 μM WEL028, 1 h preincubation"}, "[6]": {"biological_target": "CSNK2A2 (CK2 alpha 2) (Homo sapiens, UniProt P19784)", "sequence (P19784 whole entry)": "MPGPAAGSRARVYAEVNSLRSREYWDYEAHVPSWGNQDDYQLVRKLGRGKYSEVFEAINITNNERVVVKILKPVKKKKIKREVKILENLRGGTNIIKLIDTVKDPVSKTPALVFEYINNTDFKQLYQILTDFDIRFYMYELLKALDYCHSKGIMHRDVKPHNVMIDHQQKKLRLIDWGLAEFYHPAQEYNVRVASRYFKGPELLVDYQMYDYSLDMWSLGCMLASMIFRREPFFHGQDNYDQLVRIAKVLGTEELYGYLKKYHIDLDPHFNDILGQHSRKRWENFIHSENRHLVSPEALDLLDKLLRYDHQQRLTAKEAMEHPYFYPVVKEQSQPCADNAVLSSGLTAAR", "test": "SelectScreen kinase assay"}, "[7]": {"biological_target": "STK24 (MST3) (Homo sapiens, UniProt Q9Y6E0)", "sequence (Q9Y6E0 whole entry)": "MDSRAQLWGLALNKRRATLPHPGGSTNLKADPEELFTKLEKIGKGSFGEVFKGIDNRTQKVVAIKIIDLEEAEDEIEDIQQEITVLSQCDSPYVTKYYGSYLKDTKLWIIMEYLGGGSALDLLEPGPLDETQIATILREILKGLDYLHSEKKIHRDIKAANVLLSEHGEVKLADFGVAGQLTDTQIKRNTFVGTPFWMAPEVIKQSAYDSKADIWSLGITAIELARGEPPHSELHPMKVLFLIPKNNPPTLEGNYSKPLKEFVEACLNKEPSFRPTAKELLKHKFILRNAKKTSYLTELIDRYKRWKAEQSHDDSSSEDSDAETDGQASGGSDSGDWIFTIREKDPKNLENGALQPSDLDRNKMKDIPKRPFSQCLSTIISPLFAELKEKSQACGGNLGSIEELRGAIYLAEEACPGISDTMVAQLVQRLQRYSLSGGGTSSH", "test": "SelectScreen kinase assay"}, "[8]": {"biological_target": "EPHA5 (Homo sapiens, UniProt P54756)", "sequence (P54756 25-1037)": "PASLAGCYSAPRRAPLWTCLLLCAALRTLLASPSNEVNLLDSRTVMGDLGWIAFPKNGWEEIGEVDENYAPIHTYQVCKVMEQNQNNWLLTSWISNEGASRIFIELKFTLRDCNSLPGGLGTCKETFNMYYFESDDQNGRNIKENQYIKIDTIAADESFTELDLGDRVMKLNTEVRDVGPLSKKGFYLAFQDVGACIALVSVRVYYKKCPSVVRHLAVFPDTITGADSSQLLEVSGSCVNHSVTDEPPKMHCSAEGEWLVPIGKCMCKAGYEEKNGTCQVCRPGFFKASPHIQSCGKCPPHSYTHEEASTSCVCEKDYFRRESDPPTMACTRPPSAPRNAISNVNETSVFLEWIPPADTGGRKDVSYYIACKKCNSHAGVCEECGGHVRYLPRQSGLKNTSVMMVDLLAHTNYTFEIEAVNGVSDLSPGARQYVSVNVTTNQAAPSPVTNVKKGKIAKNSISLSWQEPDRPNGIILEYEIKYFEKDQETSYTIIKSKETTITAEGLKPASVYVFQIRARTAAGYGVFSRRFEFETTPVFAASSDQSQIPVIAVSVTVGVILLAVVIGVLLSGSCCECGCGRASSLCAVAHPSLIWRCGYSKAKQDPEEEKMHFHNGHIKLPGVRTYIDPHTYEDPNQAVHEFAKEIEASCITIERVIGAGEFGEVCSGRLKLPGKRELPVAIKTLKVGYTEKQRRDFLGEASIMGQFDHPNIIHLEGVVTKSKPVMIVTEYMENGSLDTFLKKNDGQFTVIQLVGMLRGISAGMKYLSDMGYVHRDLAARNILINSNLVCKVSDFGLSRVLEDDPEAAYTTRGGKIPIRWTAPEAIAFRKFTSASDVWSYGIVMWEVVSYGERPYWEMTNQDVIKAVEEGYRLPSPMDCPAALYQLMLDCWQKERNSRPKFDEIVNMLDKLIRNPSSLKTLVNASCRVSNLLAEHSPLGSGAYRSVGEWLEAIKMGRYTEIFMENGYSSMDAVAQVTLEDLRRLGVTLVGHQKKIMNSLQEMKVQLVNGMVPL", "test": "SelectScreen kinase assay"}, "[9]": {"biological_target": "CDK9/cyclin T1 (Homo sapiens, UniProt P50750)", "sequence (P50750 whole entry)": "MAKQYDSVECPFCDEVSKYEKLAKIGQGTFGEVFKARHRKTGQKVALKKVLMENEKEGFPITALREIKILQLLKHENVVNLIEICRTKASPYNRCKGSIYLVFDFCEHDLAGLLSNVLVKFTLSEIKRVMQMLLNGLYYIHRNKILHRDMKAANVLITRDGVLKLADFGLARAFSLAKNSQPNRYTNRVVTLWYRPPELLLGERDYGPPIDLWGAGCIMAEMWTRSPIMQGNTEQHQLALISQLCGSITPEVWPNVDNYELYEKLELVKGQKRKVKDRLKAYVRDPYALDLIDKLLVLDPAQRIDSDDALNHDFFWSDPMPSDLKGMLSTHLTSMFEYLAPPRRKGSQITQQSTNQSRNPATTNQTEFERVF", "sequence (O60563 whole entry partner)": "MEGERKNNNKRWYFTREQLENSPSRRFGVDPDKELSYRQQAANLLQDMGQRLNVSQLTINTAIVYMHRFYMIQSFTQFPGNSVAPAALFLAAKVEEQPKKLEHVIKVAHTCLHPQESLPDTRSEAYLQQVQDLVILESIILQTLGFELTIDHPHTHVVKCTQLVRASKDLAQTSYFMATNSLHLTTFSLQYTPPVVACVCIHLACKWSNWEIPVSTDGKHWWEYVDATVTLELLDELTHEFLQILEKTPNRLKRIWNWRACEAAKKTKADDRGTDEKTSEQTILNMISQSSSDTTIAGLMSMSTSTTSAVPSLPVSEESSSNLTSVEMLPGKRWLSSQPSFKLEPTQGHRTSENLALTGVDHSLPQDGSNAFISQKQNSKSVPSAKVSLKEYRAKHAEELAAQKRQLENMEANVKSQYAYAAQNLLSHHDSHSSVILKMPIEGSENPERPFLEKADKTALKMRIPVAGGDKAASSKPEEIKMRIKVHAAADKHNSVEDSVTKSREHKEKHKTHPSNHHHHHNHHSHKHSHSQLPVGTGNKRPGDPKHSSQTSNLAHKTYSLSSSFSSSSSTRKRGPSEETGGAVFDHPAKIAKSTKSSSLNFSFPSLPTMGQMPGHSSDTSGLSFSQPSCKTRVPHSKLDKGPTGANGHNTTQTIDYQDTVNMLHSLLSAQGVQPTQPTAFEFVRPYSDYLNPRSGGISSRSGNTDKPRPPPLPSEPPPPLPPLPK", "test": "SelectScreen kinase assay"}, "[10]": {"biological_target": "FYN (Homo sapiens, UniProt P06241)", "sequence (P06241 whole entry)": "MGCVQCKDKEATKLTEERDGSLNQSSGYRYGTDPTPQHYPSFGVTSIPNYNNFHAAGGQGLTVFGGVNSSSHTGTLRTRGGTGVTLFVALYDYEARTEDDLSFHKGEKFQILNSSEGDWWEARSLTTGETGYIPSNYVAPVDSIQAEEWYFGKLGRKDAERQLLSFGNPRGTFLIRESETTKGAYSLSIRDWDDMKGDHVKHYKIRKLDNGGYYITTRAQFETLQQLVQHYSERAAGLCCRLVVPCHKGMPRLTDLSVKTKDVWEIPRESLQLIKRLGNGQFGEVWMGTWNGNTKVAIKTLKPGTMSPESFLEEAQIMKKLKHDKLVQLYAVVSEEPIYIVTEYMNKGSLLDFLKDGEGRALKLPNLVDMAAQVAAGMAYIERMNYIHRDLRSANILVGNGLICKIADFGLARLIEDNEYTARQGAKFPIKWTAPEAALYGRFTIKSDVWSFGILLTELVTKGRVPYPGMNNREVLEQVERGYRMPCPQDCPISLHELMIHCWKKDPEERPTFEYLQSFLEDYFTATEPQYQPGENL", "test": "SelectScreen kinase assay"}, "[11]": {"biological_target": "T1, PRKD2 (PKD2) (Homo sapiens, UniProt Q9BZL6)", "T1 sequence (Q9BZL6 1-878)": "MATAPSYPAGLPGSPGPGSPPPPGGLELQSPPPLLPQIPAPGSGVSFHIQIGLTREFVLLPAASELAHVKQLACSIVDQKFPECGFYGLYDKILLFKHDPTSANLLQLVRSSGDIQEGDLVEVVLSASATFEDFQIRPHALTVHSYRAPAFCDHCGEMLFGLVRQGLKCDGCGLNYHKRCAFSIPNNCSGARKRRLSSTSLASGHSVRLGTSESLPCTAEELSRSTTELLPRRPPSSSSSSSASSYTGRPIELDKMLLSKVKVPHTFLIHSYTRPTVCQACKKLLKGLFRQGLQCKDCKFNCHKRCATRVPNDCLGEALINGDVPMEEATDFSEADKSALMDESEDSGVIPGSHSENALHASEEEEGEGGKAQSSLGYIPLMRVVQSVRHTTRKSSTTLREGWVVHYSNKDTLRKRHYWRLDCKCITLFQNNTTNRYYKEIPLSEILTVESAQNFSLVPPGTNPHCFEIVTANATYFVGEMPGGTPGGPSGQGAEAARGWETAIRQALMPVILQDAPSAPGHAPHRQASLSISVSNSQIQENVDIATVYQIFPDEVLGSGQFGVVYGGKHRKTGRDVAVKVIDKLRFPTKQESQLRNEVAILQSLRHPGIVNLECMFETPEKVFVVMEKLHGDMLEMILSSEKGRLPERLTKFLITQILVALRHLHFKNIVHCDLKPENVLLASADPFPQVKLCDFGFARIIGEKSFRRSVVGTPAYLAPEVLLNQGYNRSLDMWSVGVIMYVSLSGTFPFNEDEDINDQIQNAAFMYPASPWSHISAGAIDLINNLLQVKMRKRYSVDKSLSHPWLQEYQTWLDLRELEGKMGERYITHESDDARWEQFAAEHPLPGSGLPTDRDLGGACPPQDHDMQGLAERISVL", "test": "SelectScreen kinase assay", "conditions": "for Inhibition at 1 µM (%): ZLYTE, ATP Km app"}, "[12]": {"biological_target": "LYN B (Homo sapiens, UniProt P07948)", "sequence (P07948 1-491 isoform P07948-2)": "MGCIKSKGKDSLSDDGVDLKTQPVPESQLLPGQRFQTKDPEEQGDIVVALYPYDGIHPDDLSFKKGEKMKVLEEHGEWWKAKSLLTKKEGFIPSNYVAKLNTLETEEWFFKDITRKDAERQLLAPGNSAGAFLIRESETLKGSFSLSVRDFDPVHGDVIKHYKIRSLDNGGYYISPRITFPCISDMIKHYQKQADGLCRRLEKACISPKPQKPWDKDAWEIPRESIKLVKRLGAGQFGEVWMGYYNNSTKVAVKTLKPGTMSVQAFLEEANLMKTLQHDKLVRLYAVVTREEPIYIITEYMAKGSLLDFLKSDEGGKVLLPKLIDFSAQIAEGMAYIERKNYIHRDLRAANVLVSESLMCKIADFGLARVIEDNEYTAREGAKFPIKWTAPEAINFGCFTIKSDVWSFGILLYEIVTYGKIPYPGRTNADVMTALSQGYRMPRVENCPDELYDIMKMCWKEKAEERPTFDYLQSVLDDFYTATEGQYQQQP", "test": "SelectScreen kinase assay", "conditions": "for Inhibition at 1 µM (%): LYN B, ZLYTE, ATP Km app"}, "[13]": {"biological_target": "T2, TYRO3 (RSE) (Homo sapiens, UniProt Q06418)", "T2 sequence (Q06418 41-890)": "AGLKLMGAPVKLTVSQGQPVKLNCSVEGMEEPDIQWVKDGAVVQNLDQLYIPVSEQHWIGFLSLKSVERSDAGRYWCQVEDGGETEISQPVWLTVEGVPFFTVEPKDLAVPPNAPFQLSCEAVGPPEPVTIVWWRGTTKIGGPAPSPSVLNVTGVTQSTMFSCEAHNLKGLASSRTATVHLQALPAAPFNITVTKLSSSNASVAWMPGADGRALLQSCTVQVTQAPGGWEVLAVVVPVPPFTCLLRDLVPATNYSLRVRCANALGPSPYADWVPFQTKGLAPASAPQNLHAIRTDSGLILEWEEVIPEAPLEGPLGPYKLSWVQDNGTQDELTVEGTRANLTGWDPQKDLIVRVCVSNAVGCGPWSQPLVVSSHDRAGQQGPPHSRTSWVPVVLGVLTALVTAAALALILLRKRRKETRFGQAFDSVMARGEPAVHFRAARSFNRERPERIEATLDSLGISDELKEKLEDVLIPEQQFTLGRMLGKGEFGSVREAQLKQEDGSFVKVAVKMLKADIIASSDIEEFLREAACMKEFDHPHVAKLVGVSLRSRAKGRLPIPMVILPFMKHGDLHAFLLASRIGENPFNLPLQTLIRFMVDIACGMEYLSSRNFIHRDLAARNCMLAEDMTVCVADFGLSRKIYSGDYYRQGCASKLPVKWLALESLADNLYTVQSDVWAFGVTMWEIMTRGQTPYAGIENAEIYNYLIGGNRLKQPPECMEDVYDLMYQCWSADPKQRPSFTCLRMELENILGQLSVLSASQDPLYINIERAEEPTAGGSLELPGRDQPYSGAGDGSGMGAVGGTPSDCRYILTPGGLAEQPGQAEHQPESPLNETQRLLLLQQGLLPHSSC", "test": "SelectScreen kinase assay"}, "[14]": {"conditions": "1 h, 1 μM WEL028, 1 h preincubation"}, "[15]": {"conditions": "1 µM, ZLYTE, ATP Km app, listed as WEL028, 1 µM"}, "[16]": {"conditions": "read-out: Inhibition at 1 µM (%), 1 µM, ZLYTE, ATP Km app"}},
  "note": "Where “and” joins values, the source holds several entries; their conditions need not be identical. Identical values can stand only once. Like-named read-outs stand apart in the source and are kept apart here.",
  "data": [
    {"smiles": "C#CCOc1ccc(Nc2ncc(Cl)c(Nc3ccccc3NC(=O)C=C)n2)c(OC)c1", "note": "[Compound 6]", "values": [
      {"measurement": "inhibition at 1 µM", "setting": "[1]; [14]", "result": 9, "unit": "%"},
      {"measurement": "Inhibition at 1 µM (%)", "setting": "[1]", "result": 14, "unit": "%"},
      {"measurement": "Inhibition at 1 µM (%)", "setting": "[1]; listed as WEL028, 1 µM", "result": 4, "unit": "%"},
      {"measurement": "Inhibition (%)", "setting": "[2]; 1 μM WEL028, 1 h preincubation", "result": 16, "unit": "%"},
      {"measurement": "Inhibition at 1 µM (%)", "setting": "[2]; MAPK8 (JNK1), 1 µM, ZLYTE, ATP 100, listed as WEL028, 1 µM", "result": 22, "unit": "%"},
      {"measurement": "inhibition at 1 µM", "setting": "[2]; read-out: Inhibition at 1 µM (%), MAPK8 (JNK1), 1 µM, ZLYTE, ATP 100", "result": 11, "unit": "%"},
      {"measurement": "Inhibition of FES in live neutrophils", "setting": "[3]; 100 nM, 1 h", "result": "complete and selective inhibition of FES"},
      {"measurement": "Relative FES labeling (%)", "setting": "[3]; Figure 7b, replicates, listed as WEL028", "result": "9.291% and 9.41% and 8.966%"},
      {"measurement": "Inhibition at 1 µM (%)", "setting": "[4]; 1 µM, ZLYTE, ATP Km app", "result": 13, "unit": "%"},
      {"measurement": "inhibition at 1 µM", "setting": "[4]; [14]", "result": 4, "unit": "%"},
      {"measurement": "inhibition at 1 µM", "setting": "[5]", "result": 5, "unit": "%"},
      {"measurement": "inhibition at 1 µM", "setting": "[6]; 1 h", "result": 6, "unit": "%"},
      {"measurement": "inhibition at 1 µM", "setting": "[6]; read-out: Inhibition at 1 µM (%)", "result": 6, "unit": "%"},
      {"measurement": "Inhibition (%)", "setting": "[7]; 1 μM WEL028, 1 h preincubation", "result": 12, "unit": "%"},
      {"measurement": "Inhibition at 1 µM (%)", "setting": "[7]; [15]", "result": 15, "unit": "%"},
      {"measurement": "inhibition at 1 µM", "setting": "[7]; [16]", "result": 9, "unit": "%"},
      {"measurement": "Inhibition (%)", "setting": "[8]; 1 μM WEL028, 1 h preincubation", "result": 0, "unit": "%"},
      {"measurement": "Inhibition at 1 µM (%)", "setting": "[8]; EPHA5, 1 µM, ZLYTE, ATP Km app, listed as WEL028, 1 µM", "result": "3% and -2%"},
      {"measurement": "inhibition at 1 µM", "setting": "[9]; [14]", "result": 16, "unit": "%"},
      {"measurement": "Inhibition at 1 µM (%)", "setting": "[9]; CDK9/cyclin T1, 1 µM, Adapta, ATP Km app, listed as WEL028, 1 µM", "result": 12, "unit": "%"},
      {"measurement": "inhibition at 1 µM", "setting": "[9]; read-out: Inhibition at 1 µM (%), CDK9/cyclin T1, 1 µM, Adapta, ATP Km app", "result": 20, "unit": "%"},
      {"measurement": "inhibition at 1 µM", "setting": "[10]; [14]", "result": 4, "unit": "%"},
      {"measurement": "Inhibition at 1 µM (%)", "setting": "[10]; FYN, 1 µM, ZLYTE, ATP Km app, listed as WEL028, 1 µM", "result": "0% and 8%"},
      {"measurement": "Inhibition at 1 µM (%)", "setting": "[11]", "result": 2, "unit": "%"},
      {"measurement": "Inhibition at 1 µM (%)", "setting": "[11]; listed as WEL028, 1 µM", "result": 5, "unit": "%"},
      {"measurement": "inhibition at 1 µM", "setting": "[11]; [14]", "result": 3, "unit": "%"},
      {"measurement": "inhibition at 1 µM", "setting": "[12]; [14]", "result": 1, "unit": "%"},
      {"measurement": "Inhibition at 1 µM (%)", "setting": "[12]", "result": 3, "unit": "%"},
      {"measurement": "Inhibition at 1 µM (%)", "setting": "[12]; listed as WEL028, 1 µM", "result": 0, "unit": "%"},
      {"measurement": "Inhibition at 1 µM (%)", "setting": "[13]; [15]", "result": 6, "unit": "%"},
      {"measurement": "inhibition at 1 µM", "setting": "[13]; [14]", "result": 5, "unit": "%"},
      {"measurement": "inhibition at 1 µM", "setting": "[13]; [16]", "result": 4, "unit": "%"}
    ]}
  ]
}
